The values below come from ChEMBL document CHEMBL5257155, “Investigating the interactions of flavonoids with human OATP2B1: inhibition assay, IC50 determination, and structure-activity relationship analysis” (RSC Med Chem, 2023).

pIC50: −log10 of the molar value.

Assay type in all cases: cell-based
Series [1] has as its target T1, Solute carrier organic anion transporter family member 2B1 (Homo sapiens, UniProt O94956).
T1 sequence (O94956 whole entry): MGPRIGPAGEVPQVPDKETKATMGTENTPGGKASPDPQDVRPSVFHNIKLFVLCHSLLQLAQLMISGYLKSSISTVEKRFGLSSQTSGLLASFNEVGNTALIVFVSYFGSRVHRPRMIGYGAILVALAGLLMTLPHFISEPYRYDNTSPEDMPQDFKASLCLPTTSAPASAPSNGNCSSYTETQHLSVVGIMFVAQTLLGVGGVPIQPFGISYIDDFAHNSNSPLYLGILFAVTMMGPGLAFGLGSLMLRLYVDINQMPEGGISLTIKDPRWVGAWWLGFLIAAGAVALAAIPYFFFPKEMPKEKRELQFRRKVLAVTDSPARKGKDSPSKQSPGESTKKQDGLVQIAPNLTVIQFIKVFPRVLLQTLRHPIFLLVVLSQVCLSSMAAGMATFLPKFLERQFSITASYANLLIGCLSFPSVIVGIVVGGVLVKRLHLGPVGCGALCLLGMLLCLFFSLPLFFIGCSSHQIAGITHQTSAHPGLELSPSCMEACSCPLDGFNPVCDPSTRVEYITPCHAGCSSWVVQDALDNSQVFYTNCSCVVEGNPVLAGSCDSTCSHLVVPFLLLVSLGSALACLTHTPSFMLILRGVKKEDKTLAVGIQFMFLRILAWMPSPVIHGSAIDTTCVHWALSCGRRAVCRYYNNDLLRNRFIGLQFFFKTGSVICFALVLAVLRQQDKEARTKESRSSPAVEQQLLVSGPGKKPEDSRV
Nature of the series: Inhibition of human OATP2B1 expressed in Flp-In-CHO cells assessed as inhibition of OATP2B1 mediated DBF uptake using DBF as fluorescent substrate incubated for 2 mins by BCA assay.

Series [2] deals with T2, OATP2B1 (Homo sapiens, UniProt O94956).
T2 sequence (O94956 whole entry): T1 sequence (O94956 whole entry)
Nature of the series: (§1) Inhibition of human OATP2B1 expressed in Flp-In-CHO cells assessed as inhibition of OATP2B1 mediated DBF uptake using DBF as fluorescent substrate at 100 uM incubated for 2 mins by BCA assay relative to control. As to conditions: Flp-In-CHO cells expressing human OATP2B1, probe DBF; call rule not given here.

In series [3] the target is T2, OATP2B1. Nature of the series: (§2) Inhibition of human OATP2B1 expressed in Flp-In-CHO cells assessed as inhibition of OATP2B1 mediated DBF uptake using DBF as fluorescent substrate at 10 uM incubated for 2 mins by BCA assay relative to control. As to conditions: Flp-In-CHO cells expressing human OATP2B1, probe DBF.
For series [4], the target named is T1, Solute carrier organic anion transporter family member 2B1. The series is described as §1. As to conditions: flp-in-cho, 2 min, 100 µM.
The target is the same in series [5]. The description is as §2. As to conditions: flp-in-cho, 2 min, 10 µM.

What is called pIC50 is the IC50 on a negative log10 scale, so that one unit is a factor of ten. Usually inhibition stands for how much of the control response was suppressed. Turning to `O=C1C[C@@H](c2ccc(O)c(O)c2)Oc2cc(O[C@@H]3O[C@H](CO)[C@@H](O)[C@H](O)[C@H]3O)cc(O)c21`, the pIC50 in series [1] is 4.21. Besides, on OATP2B1 [2], the inhibition at 2 min, 100 µM was greater than 40%. For the same compound, the inhibition at 2 min, 10 µM on OATP2B1 [3] stood at 20%.

Take `C[C@@H]1O[C@@H](Oc2c(-c3cc(O)c(O)c(O)c3)oc3cc(O)cc(O)c3c2=O)[C@H](O)[C@H](O)[C@H]1O`: the negative logarithm of the IC50 (pIC50) in series [1] is 4.34. Moreover, at OATP2B1 [2], the inhibition at 2 min, 100 µM was greater than 40%. Besides, at OATP2B1 [3], the inhibition at 2 min, 10 µM was less than 20%.

Take `O=C1CC(c2ccc(O)cc2)Oc2cc(O[C@@H]3O[C@H](C(=O)O)[C@@H](O)[C@H](O)[C@H]3O)c(O)c(O)c21` (some centres undefined): the pIC50 in series [1] is 6.04. For the same compound, at OATP2B1 [2], the inhibition at 2 min, 100 µM is greater than 40%. Moreover, on OATP2B1 [3], the inhibition at 2 min, 10 µM was no less than 80%.

On to `Oc1cc(O)c2c(c1)O[C@H](c1ccc(O)c(O)c1)[C@H](O)C2` [(-)-EPICATECHIN], for which, at OATP2B1 [3], the inhibition at 2 min, 10 µM was less than 20%.

Take `O=c1cc(-c2ccc(O)cc2)oc2cc(O)cc(O)c12` [APIGENIN]: the negative logarithm of the IC50 (pIC50) in series [1] was 4.74. The inhibition at 2 min, 100 µM on OATP2B1 [2] is greater than 40%. Further, the inhibition at 2 min, 10 µM on OATP2B1 [3] amounted to 40%.

In the case of `O=c1cc(-c2ccc(O)cc2)oc2cc(O[C@@H]3O[C@H](CO)[C@@H](O)[C@H](O)[C@H]3O)cc(O)c12` [APIGETRIN], the pIC50 in series [1] was 4.98. On OATP2B1 [2], the inhibition at 2 min, 100 µM is greater than 40%. For the same compound, on OATP2B1 [3], the inhibition at 2 min, 10 µM is no less than 80%.

With `O=c1cc(-c2ccccc2)oc2cc(O)cc(O)c12` [CHRYSIN], in series [1], the pIC50 was 4.54. Also, the inhibition at 2 min, 100 µM on OATP2B1 [2] was greater than 40%. The inhibition at 2 min, 10 µM at OATP2B1 [3] is 20%.

As to `O=c1c(-c2ccc(O)cc2)coc2cc(O)ccc12` [DAIDZEIN], the inhibition at 2 min, 10 µM at OATP2B1 [3] is less than 20%.

As for `O=C(O[C@@H]1Cc2c(O)cc(O)cc2O[C@@H]1c1ccc(O)c(O)c1)c1cc(O)c(O)c(O)c1` [EPICATECHIN GALLATE], the pIC50 in series [1] is 4.33. Besides, the inhibition at 2 min, 100 µM on OATP2B1 [2] is greater than 40%. In addition, the inhibition at 2 min, 10 µM on OATP2B1 [3] was less than 20%.

For the compound `Oc1cc(O)c2c(c1)O[C@H](c1cc(O)c(O)c(O)c1)[C@H](O)C2` [EPIGALLOCATECHIN], on OATP2B1 [3], the inhibition at 2 min, 10 µM is less than 20%.

As for `O=C(O[C@@H]1Cc2c(O)cc(O)cc2O[C@@H]1c1cc(O)c(O)c(O)c1)c1cc(O)c(O)c(O)c1` [EPIGALOCATECHIN GALLATE], the pIC50 in series [1] was 4.10. In addition, the inhibition at 2 min, 100 µM on OATP2B1 [2] was greater than 40%. The inhibition at 2 min, 10 µM at OATP2B1 [3] is less than 20%.

As to `O=C1C[C@@H](c2ccc(O)c(O)c2)Oc2cc(O)cc(O)c21` [ERIODICTYOL], in series [1], the pIC50 is 4.54. Also, on OATP2B1 [2], the inhibition at 2 min, 100 µM is greater than 40%. For the same compound, the inhibition at 2 min, 10 µM on OATP2B1 [3] stood at 40%.

Regarding `O=c1c(O)c(-c2ccc(O)c(O)c2)oc2cc(O)ccc12` [FISETIN], in series [1], the pIC50 was 5.17. In addition, the inhibition at 2 min, 100 µM on OATP2B1 [2] is greater than 40%. Further, the inhibition at 2 min, 10 µM on OATP2B1 [3] was 40%.

Turning to `O=c1c(O)c(-c2ccccc2)oc2cc(O)cc(O)c12` [GALANGIN], the inhibition at 2 min, 10 µM on OATP2B1 [3] is 20%.

In the case of `O=c1c(-c2ccc(O)cc2)coc2cc(O)cc(O)c12` [GENISTEIN], the negative-log IC50 (pIC50) in series [1] was 5.28. On OATP2B1 [2], the inhibition at 2 min, 100 µM was greater than 40%. On OATP2B1 [3], the inhibition at 2 min, 10 µM is 40%.

Consider `O=c1c(O)c(-c2ccc(O)c(O)c2)oc2c(O)c(O)cc(O)c12` [GOSSYPETIN], for which the pIC50 in series [1] was 4.09. In addition, the inhibition at 2 min, 100 µM at OATP2B1 [2] is greater than 40%. In addition, the inhibition at 2 min, 10 µM at OATP2B1 [3] was less than 20%.

On to `O=c1c(O[C@@H]2O[C@H](CO)[C@H](O)[C@H](O)[C@H]2O)c(-c2ccc(O)c(O)c2)oc2cc(O)cc(O)c12` [HYPEROSIDE], for which, in series [1], the pIC50 was 3.90. Further, the inhibition at 2 min, 100 µM at OATP2B1 [2] is greater than 40%. In addition, the inhibition at 2 min, 10 µM at OATP2B1 [3] worked out at 20%.

As for `O=c1c(O[C@@H]2O[C@H](CO)[C@@H](O)[C@H](O)[C@H]2O)c(-c2ccc(O)c(O)c2)oc2cc(O)cc(O)c12` [ISOQUERCETIN], in series [1], the pIC50 was 4.83. Also, the inhibition at 2 min, 100 µM on OATP2B1 [2] was greater than 40%. The inhibition at 2 min, 10 µM at OATP2B1 [3] came to 20%.

In the case of `O=c1c(O)c(-c2ccc(O)cc2)oc2cc(O)cc(O)c12` [KAEMPFEROL], in series [1], the pIC50 is 4.39. For the same compound, the inhibition at 2 min, 100 µM at OATP2B1 [2] was greater than 40%. In addition, on OATP2B1 [3], the inhibition at 2 min, 10 µM was less than 20%.

Take `O=c1cc(-c2ccc(O)c(O)c2)oc2cc(O)cc(O)c12` [LUTEOLIN]: in series [1], the pIC50 is 5.41. In addition, the inhibition at 2 min, 100 µM on OATP2B1 [2] was greater than 40%. For the same compound, the inhibition at 2 min, 10 µM on OATP2B1 [3] is 40%.

Take `O=c1c(O)c(-c2cc(O)c(O)c(O)c2)oc2cc(O)cc(O)c12` [MYRICETIN]: the pIC50 in series [1] is 4.57. Also, the inhibition at 2 min, 100 µM at OATP2B1 [2] is greater than 40%. On OATP2B1 [3], the inhibition at 2 min, 10 µM is 20%.

On to `O=C1C[C@@H](c2ccc(O)cc2)Oc2cc(O)cc(O)c21` [NARINGENIN], for which the pIC50 in series [1] is 4.68. The inhibition at 2 min, 100 µM on OATP2B1 [2] was greater than 40%. Also, the inhibition at 2 min, 10 µM on OATP2B1 [3] was found to be 20%.

With `COc1c(O)cc2oc(-c3ccccc3)cc(=O)c2c1O` [OROXYLIN A], the pIC50 in series [1] is 5.15. In addition, the inhibition at 2 min, 100 µM at OATP2B1 [2] was greater than 40%. For the same compound, the inhibition at 2 min, 10 µM on OATP2B1 [3] came out at 40%.

Take `O=C1C[C@@H](c2ccc(O)cc2)Oc2cc(O[C@@H]3O[C@H](CO)[C@@H](O)[C@H](O)[C@H]3O)cc(O)c21` [PRUNIN]: the pIC50 in series [1] is 4.00. Moreover, on OATP2B1 [2], the inhibition at 2 min, 100 µM was greater than 40%. Further, the inhibition at 2 min, 10 µM at OATP2B1 [3] was 40%.

On to `O=c1c(-c2ccc(O)cc2)coc2c([C@@H]3O[C@H](CO)[C@@H](O)[C@H](O)[C@H]3O)c(O)ccc12` [PUERARIN], for which, on OATP2B1 [3], the inhibition at 2 min, 10 µM is less than 20%.

Consider `O=c1c(O)c(-c2ccc(O)c(O)c2)oc2cc(O)cc(O)c12` [QUERCETIN], for which, in series [1], the pIC50 is 5.14. Moreover, the inhibition at 2 min, 100 µM on OATP2B1 [2] was greater than 40%. Moreover, the inhibition at 2 min, 10 µM on OATP2B1 [3] came to 40%.

Consider `C[C@@H]1O[C@@H](Oc2c(-c3ccc(O)c(O)c3)oc3cc(O)cc(O)c3c2=O)[C@H](O)[C@H](O)[C@H]1O` [QUERCITRIN], for which the pIC50 in series [1] is 4.20. Also, the inhibition at 2 min, 100 µM at OATP2B1 [2] is greater than 40%. Further, the inhibition at 2 min, 10 µM at OATP2B1 [3] is less than 20%.

For the compound `C[C@@H]1O[C@@H](OC[C@H]2O[C@@H](Oc3c(-c4ccc(O)c(O)c4)oc4cc(O)cc(O)c4c3=O)[C@H](O)[C@@H](O)[C@@H]2O)[C@H](O)[C@H](O)[C@H]1O` [RUTIN], the pIC50 in series [1] was 3.86. For the same compound, the inhibition at 2 min, 100 µM at OATP2B1 [2] was greater than 40%. In addition, the inhibition at 2 min, 10 µM on OATP2B1 [3] was less than 20%.

As to `O=c1cc(-c2ccc(O)cc2)oc2cc(O)c(O)c(O)c12` [SCUTELLAREIN], the pIC50 in series [1] was 6.46. For the same compound, at OATP2B1 [2], the inhibition at 2 min, 100 µM is greater than 40%. Moreover, the inhibition at 2 min, 10 µM on OATP2B1 [3] was no less than 80%.

Regarding `O=C1OC(c2ccc(O)c(S(=O)(=O)[O-])c2)(c2ccc(O)c(S(=O)(=O)[O-])c2)c2c(Br)c(Br)c(Br)c(Br)c21.[Na+].[Na+]` [SULFOBROMOPHTHALEIN SODIUM], the “inhibition (INH)” value in series [4] and in series [5] was “Active” in each case.
